Measurements: US4073912A, “Piperidylidene derivatives of benzo-fused xanthenes, thioxanthenes and dibenzoxepins and antipsychotic use thereof” (priority 1976, dated 1978)
Counter-ions that a name gives are not always drawn. Like-named read-outs stand apart in the source and are kept apart here.

Columns and labels:
[1] = in vivo; format: in vivo, rat; settings: rat, in vivo, ip
From the text: (§1) There is evidence that antipsychotic drugs cause EPS by interfering with neurotransmission in a nigrostriatal dopaminergic pathway. It is thought that they block dopamine receptors in the neostriatum. Therefore, the ability of a drug to block striatal dopamine receptors is a measure of its EPS liability.
(§2) This treatment causes degeneration of the nigrostriatal dopaminergic pathway accompanied by a marked decrease in the dopamine content of the neostriatum on the side of the lesion. Animals with this lesion develop postural and motor asymmetries which are altered by drugs which affect dopaminergic activity. Amphetamine, which releases dopamine and norepinephrine from catecholaminergic neurons, causes these rats to rotate unidirectionally toward the side of the lesion; i.e., ipsilaterally. Since there is a much larger amount of dopamine to be released by amphetamine from the intact nigrostriatal neurons on the non-lesioned side than from those remaining on the lesioned side, the rotational behavior is apparently due to a preponderance of activation of striatal dopamine receptors on the intact side. The ability of a drug to antagonize the rotational behavior is therefore a measure of its ability to block striatal dopamine receptors and is indicative of its potential to produce EPS.
(§3) To predict the potential ability of a drug to cause EPS, the ratio of its ED50 (i.p.) for antagonism of amphetamine-induced rotation to its ED50 (i.p.) for blockade of shock avoidance acquisition in the rat, a procedure for assessing antipsychotic activity, (R/A ratio) is calculated. The ED50 values of some clinically established antipsychotics in the avoidance and rotational tests and the R/A ratios are presented in Table I.

[2] = system: striatal dopamine receptors; experiment: in vivo; format: in vivo, rat; settings: for R/A ratio: rat; for ED50 for antagonism of amphetamine-induced rotation (R): rats with unilateral 6-hydroxydopamine lesion, i.p.
From the text: as §1, §2, §3

[3] = system: shock avoidance acquisition; experiment: Blockade (antagonism) of shock avoidance acquisition in rats; format: in vivo; settings: Rattus norvegicus, ip, read-out: ED50 for antagonism (blockade) of avoidance acquisition (A)
Experimental: as §3

[4] = compared with chlorpromazine; cited from earlier work
[5] = ED50 (i.p.) rotation / ED50 (i.p.) avoidance, high ratio predicts low potential to produce EPS, read-out: R/A ratio

| SMILES | selectivity ratio ([1]; R/A ratio) | R/A ratio ([2]; in vivo, ip) | ED50 for antagonism of amphetamine-induced rotation (R) [2] | ED50 [3] | propensity to cause EPS [4] | selectivity ratio [1, 5] | EPS liability ([2]; indicated by R/A ratio of 10) | ED50 ([3]; rats, i.p.) | selectivity ratio ([1]; read-out: R/A ratio) | R/A ratio ([2]; ED50 (i.p.) rotation / ED50 (i.p.) avoidance, high ratio predicts low potential to produce EPS) |
| --- | --- | --- | --- | --- | --- | --- | --- | --- | --- | --- |
| O=C(CCCN1CCC(O)(c2ccc(Cl)cc2)CC1)c1ccc(F)cc1 [Haloperidol] | 0.31 | 0.3 to 0.5 | 0.05 mg/kg | 0.16 mg/kg | considerably greater propensity to cause EPS than chlorpromazine |  |  |  |  |  |
| CN1CCC(=C2c3ccccc3Oc3ccc4ccccc4c32)CC1 [12-(1-methyl-4-piperidylidene)-12H-benzo a!xanthene hydrochloride] |  |  | 6.4 mg/kg |  |  | 10 | essentially free of EPS liability | 0.64 mg/kg |  |  |
| CSc1ccc2c(c1)N(CCC1CCCCN1C)c1ccccc1S2 (centres unmarked) [Thioridazine] |  |  |  |  |  |  |  | 5.1 mg/kg |  |  |
| CN1CCN(CCCN2c3ccccc3Sc3ccc(C(F)(F)F)cc32)CC1 [Trifluoperazine] | 0.46 | 0.3 to 0.5 | 0.12 mg/kg |  | considerably greater propensity to cause EPS than chlorpromazine |  |  | 0.26 mg/kg |  |  |
| CN1CCN(C2=Nc3cc(Cl)ccc3Nc3ccccc32)CC1 [Clozapine] |  |  |  |  | produce EPS to a lesser extent than chlorpromazine |  |  | 6.6 mg/kg | 3.8 |  |
| O=c1[nH]c2ccccc2n1C1CCN(CCCC(c2ccc(F)cc2)c2ccc(F)cc2)CC1 [Pimozide] |  |  | 0.08 mg/kg | 0.24 mg/kg | considerably greater propensity to cause EPS than chlorpromazine | 0.3 |  |  |  | 0.3 to 0.5 |
| CN(C)CCCN1c2ccccc2Sc2ccc(Cl)cc21 [Chlorpromazine] |  |  | 2.0 mg/kg | 1.5 mg/kg |  | 1.3 |  |  |  |  |
